Results published in patent US9181234B2, “Antibacterial compounds” (priority 2010, dated 2015).
Converted amounts (≈) assume the structure as drawn.

Experiments:
physchem = details: kinetic from dmso stock
How it was run: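 DMSO doubling dilutions were diluted twenty-fold into 100 mM citrate (pH 4), PBS (pH 7.4) or carbonate-bicarbonate (pH 9). After 24 h equilibration at room temperature, absorbance was read at 620 nm. The reported value is the highest concentration without measurable precipitate.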

[1] = tested on: Staphylococcus aureus (Isolate ID ATCC 29213); assay: Antibacterial activity, MIC, S. aureus; assay type: cell-based; details: Staphylococcus aureus, ATCC29213, Gram positive strain; broth microdilution or agar dilution
How it was run: (§1)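 Susceptibility testing run in liquid or on solid media, with MIC values obtained by the CLSI-described broth microdilution or agar dilution method.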

[2] = tested on: Enterococcus faecalis (Isolate ID ATCC 29212); assay: Antibacterial activity, MIC, E. faecalis; assay type: cell-based; details: Enterococcus faecalis, ATCC29212; Gram positive strain; broth microdilution or agar dilution
How it was run: as §1

[3] = tested on: Streptococcus pyogenes (Isolate ID ATCC 51339); assay: Antibacterial activity, MIC, S. pyogenes; assay type: cell-based; details: Streptococcus pyogenes, ATCC51339, Gram positive strain; broth microdilution or agar dilution
How it was run: as §1

[4] = tested on: Haemophilus influenzae (Isolate ID ATCC 49247); assay: Antibacterial activity, MIC, H. influenzae; assay type: cell-based; details: Haemophilus influenzae, ATCC49247; Gram negative strain; broth microdilution or agar dilution
How it was run: as §1

[5] = pH 7.4, aqueous buffer, Solubility (pH 7.4)
[6] = pH 7.4, aqueous buffer, Solubility Range
[7] = pH 9, aqueous buffer, Max Solubility
[8] = pH 9, aqueous buffer, Solubility Range (maximum solubility)
[9] = pH 7.4, aqueous buffer, Max Solubility
[10] = pH 7.4, aqueous buffer, Solubility Range (maximum solubility)

Row | Compound | solubility at 24 h (physchem; [5]) [µg/mL] | solubility at 24 h (physchem; [6]) [µg/mL] | solubility at 24 h (physchem; [7]) [µg/mL] | solubility at 24 h (physchem; [8]) [µg/mL] | MIC [1] [µg/mL] | MIC [2] [µg/mL] | MIC [3] [µg/mL] | MIC [4] [µg/mL] | solubility at 24 h (physchem; [9]) [µg/mL] | solubility at 24 h (physchem; [10]) [µg/mL]
1 | CCCC1(C(=O)O)CCN(c2ncc(-c3cc(-c4ncnc5[nH]ccc45)c4sc(NC(=O)NCC)nc4c3)cn2)CC1 [Compound 125] | 50 (≈ 85.4 µM) | 12.5 to 400 (≈ 21.3 to 683 µM) | ≥ 800 | > 800 | 0.25 to 1 (≈ 0.427 to 1.71 µM) | ≤ 0.25 | ≤ 0.25 | > 16 | – | –
2 | CCCC1(C(=O)O)CCN(c2ncc(-c3cc(-c4ncccc4C#N)c4sc(NC(=O)NCC)nc4c3)cn2)CC1 [Compound 126] | 100 (≈ 175 µM) | 12.5 to 400 (≈ 21.9 to 701 µM) | ≥ 800 | > 800 | ≤ 0.25 | ≤ 0.25 | ≤ 0.25 | 1 to 16 (≈ 1.75 to 28 µM) | – | –
3 | CCCC1(C(=O)O)CCN(c2ncc(-c3cc(-c4nccc(OC)n4)c4sc(NC(=O)NCC)nc4c3)cn2)CC1 [Compound 127] | 12.5 (≈ 21.7 µM) | 12.5 to 400 (≈ 21.7 to 694 µM) | 25 (≈ 43.4 µM) | 12.5 to 400 (≈ 21.7 to 694 µM) | ≤ 0.25 | ≤ 0.25 | ≤ 0.25 | > 16 | – | –
4 | CCNC(=O)Nc1nc2cc(-c3cnc(N4CCC(N)(C(=O)O)CC4)nc3)cc(-c3ccccn3)c2s1 [Compound 128, 4-amino-1-[5-[2-(ethylcarbamoylamino)-7-(2-pyridyl)-1,3-benzothiazol-5-yl]pyrimidin-2-yl]piperidine-4-carboxylic acid] | 25 (≈ 48.2 µM) | 12.5 to 400 (≈ 24.1 to 771 µM) | – | – | > 16 | > 16 | 1 to 16 (≈ 1.93 to 30.9 µM) | > 16 | – | –
5 | CCNC(=O)Nc1nc2cc(-c3cnc(N4CCC(C(=O)O)(c5ccccc5)CC4)nc3)cc(-c3ccccn3)c2s1 [Compound 129] | 12.5 (≈ 21.6 µM) | 12.5 to 400 (≈ 21.6 to 690 µM) | – | – | 0.25 to 1 (≈ 0.431 to 1.73 µM) | ≤ 0.25 | 0.25 to 1 (≈ 0.431 to 1.73 µM) | > 16 | – | –
6 | CCNC(=O)Nc1nc2cc(-c3cnc(N4CCC(C#N)(C(=O)O)CC4)nc3)cc(-c3ccccn3)c2s1 [Compound 130] | 200 (≈ 378 µM) | 12.5 to 400 (≈ 23.6 to 757 µM) | – | – | > 16 | 1 to 16 (≈ 1.89 to 30.3 µM) | 1 to 16 (≈ 1.89 to 30.3 µM) | > 16 | – | –
7 | CCNC(=O)Nc1nc2cc(-c3cnc(N4CCC(O)(C(=O)O)CC4)nc3)cc(-c3ccccn3)c2s1 [Compound 131] | 100 (≈ 192 µM) | 12.5 to 400 (≈ 24.1 to 770 µM) | – | – | 1 to 16 (≈ 1.92 to 30.8 µM) | 0.25 to 1 (≈ 0.481 to 1.92 µM) | ≤ 0.25 | 1 to 16 (≈ 1.92 to 30.8 µM) | – | –
8 | CCNC(=O)Nc1nc2cc(-c3cnc(N4CCC(OC)(C(=O)O)CC4)nc3)cc(-c3ccccn3)c2s1 [Compound 132] | 400 (≈ 750 µM) | 400 to 800 (≈ 750 to 1500 µM) | – | – | 0.25 to 1 (≈ 0.469 to 1.87 µM) | ≤ 0.25 | ≤ 0.25 | 1 to 16 (≈ 1.87 to 30 µM) | – | –
9 | CCNC(=O)Nc1nc2cc(-c3cnc(N4CCC(C(=O)O)(S(C)(=O)=O)CC4)nc3)cc(-c3ccccn3)c2s1 [Compound 133] | ≥ 800 | > 800 | – | – | > 16 | 1 to 16 (≈ 1.72 to 27.5 µM) | 1 to 16 (≈ 1.72 to 27.5 µM) | > 16 | – | –
10 | CCNC(=O)Nc1nc2cc(-c3cnc(N4CCC(Cc5ccccc5)(C(=O)O)CC4)nc3)cc(-c3ccccn3)c2s1 [Compound 134] | 100 (≈ 168 µM) | 12.5 to 400 (≈ 21.1 to 674 µM) | – | – | ≤ 0.25 | ≤ 0.25 | 0.25 to 1 (≈ 0.421 to 1.68 µM) | > 16 | – | –
11 | CCNC(=O)Nc1nc2cc(-c3cnc(N4CCC(F)(C(=O)O)CC4)nc3)cc(-c3ccccn3)c2s1 [Compound 135] | 400 (≈ 767 µM) | 400 to 800 (≈ 767 to 1530 µM) | – | – | 1 to 16 (≈ 1.92 to 30.7 µM) | ≤ 0.25 | ≤ 0.25 | 1 to 16 (≈ 1.92 to 30.7 µM) | – | –
12 | CCNC(=O)Nc1nc2cc(-c3cnc(N4CCC(C(=O)O)(C(C)C)CC4)nc3)cc(-c3ccccn3)c2s1 [Compound 137] | 400 (≈ 733 µM) | 400 to 800 (≈ 733 to 1470 µM) | – | – | ≤ 0.25 | ≤ 0.25 | ≤ 0.25 | 1 to 16 (≈ 1.83 to 29.3 µM) | – | –
13 | CCNC(=O)Nc1nc2cc(-c3cnc(N4CCC(SC)(C(=O)O)CC4)nc3)cc(-c3ccccn3)c2s1 [Compound 138] | ≥ 800 | > 800 | – | – | ≤ 0.25 | ≤ 0.25 | ≤ 0.25 | 1 to 16 (≈ 1.82 to 29.1 µM) | – | –
14 | C=CCC1(C(=O)O)CCN(c2ncc(-c3cc(-c4cnccn4)c4sc(NC(=O)NCC)nc4c3)cn2)CC1 [Compound 139, 4-allyl-1-[5-[2-(ethylcarbamoylamino)-7-pyrazin-2-yl-1,3-benzothiazol-5-yl]pyrimidin-2-yl]piperidine-4-carboxylic acid] | ≥ 800 | > 800 | – | – | ≤ 0.25 | ≤ 0.25 | ≤ 0.25 | 1 to 16 (≈ 1.84 to 29.4 µM) | – | –
15 | CCNC(=O)Nc1nc2cc(-c3cnc(N4CCC(CC(F)(F)F)(C(=O)O)CC4)nc3)cc(-c3ccccn3)c2s1 [Compound 140] | ≥ 800 | > 800 | – | – | 0.25 to 1 (≈ 0.427 to 1.71 µM) | ≤ 0.25 | ≤ 0.25 | 1 to 16 (≈ 1.71 to 27.3 µM) | ≥ 800 | > 800
16 | CCNC(=O)Nc1nc2cc(-c3cnc(N4CCC(C(=O)O)(C(F)(F)F)CC4)nc3)cc(-c3ccccn3)c2s1 [Compound 142, 1-[5-[2-(ethylcarbamoylamino)-7-(2-pyridyl)-1,3-benzothiazol-5-yl]pyrimidin-2-yl]-4-(trifluoromethyl)piperidine-4-carboxylic acid] | ≥ 800 | > 800 | – | – | 1 to 16 (≈ 1.75 to 28 µM) | ≤ 0.25 | ≤ 0.25 | 1 to 16 (≈ 1.75 to 28 µM) | ≥ 800 | > 800
17 | CCNC(=O)Nc1nc2cc(-c3cnc(N4CCC(C)(C(=O)O)CC4)nc3)cc(C#Cc3cncn3C)c2s1 [Compound 144, 1-[5-[2-(ethylcarbamoylamino)-7-[2-(3-methylimidazol-4-yl)ethynyl]-1,3-benzothiazol-5-yl]pyrimidin-2-yl]-4-methyl-piperidine-4-carboxylic acid] | 400 (≈ 734 µM) | 400 to 800 (≈ 734 to 1470 µM) | – | – | 0.25 to 1 (≈ 0.459 to 1.84 µM) | ≤ 0.25 | ≤ 0.25 | 0.25 to 1 (≈ 0.459 to 1.84 µM) | – | –
18 | CCNC(=O)Nc1nc2cc(-c3cnc(N4CCC(C)(C(=O)O)CC4)nc3)cc(C(=O)Nc3nccs3)c2s1 [Compound 145, 1-[5-[2-(ethylcarbamoylamino)-7-(thiazol-2-ylcarbamoyl)-1,3-benzothiazol-5-yl]pyrimidin-2-yl]-4-methyl-piperidine-4-carboxylic acid] | ≥ 800 | > 800 | – | – | > 16 | 0.25 to 1 (≈ 0.441 to 1.76 µM) | 1 to 16 (≈ 1.76 to 28.2 µM) | > 16 | – | –
19 | CCNC(=O)Nc1nc2cc(-c3cnc(N4CCC(C)(C(=O)O)CC4)nc3)cc(NC(=O)c3ncccn3)c2s1 [Compound 146, 1-[5-[2-(ethylcarbamoylamino)-7-(pyrimidine-2-carbonylamino)-1,3-benzothiazol-5-yl]pyrimidin-2-yl]-4-methyl-piperidine-4-carboxylic acid] | 50 (≈ 89 µM) | 12.5 to 400 (≈ 22.3 to 712 µM) | – | – | > 16 | > 16 | > 16 | > 16 | – | –
20 | CCNC(=O)Nc1nc2cc(-c3cnc(N4CCC(C)(C(=O)O)CC4)nc3)cc(CN(C)c3ncccn3)c2s1 [Compound 147, 1-[5-[2-(ethylcarbamoylamino)-7-[[methyl(pyrimidin-2-yl)amino]methyl]-1,3-benzothiazol-5-yl]pyrimidin-2-yl]-4-methyl-piperidine-4-carboxylic acid] | ≥ 800 | > 800 | – | – | 1 to 16 (≈ 1.78 to 28.5 µM) | ≤ 0.25 | 0.25 to 1 (≈ 0.445 to 1.78 µM) | 1 to 16 (≈ 1.78 to 28.5 µM) | – | –
